22 compounds from patent US20250051321A1, “TRICYCLIC DERIVATIVE AND PREPARATION METHOD THEREFOR AND APPLICATION THEREOF” (SHANGHAI JEMINCARE PHARMACEUTICAL CO., LTD., priority 2021, published 2025) can be followed below.

Molecules are shown by their SMILES. Read-outs that look alike come from different tables or passages of the source.

The term IC50 denotes the concentration at which inhibition is half-maximal. What is called AUC is concentration integrated over time. A lower AUC goes with low exposure. One may read the half-life as the time in which the quantity being followed falls by half. Higher therefore signals slow decline. In general, Cmax refers to the peak of the concentration-time curve. Usually Tmax stands for the time at which the peak concentration occurs.

For series [1], the system named is plasma LPA 18:1 and LPA 18:2. Kind of series: Human plasma ex vivo assay (LPA 18:1 / 18:2 by LC-MS/MS). The format is biochemical. The following applies: 37° C., 2 hours. In short, it runs like this: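 Human plasma incubated 2 h at 37° C with compound (8 points, 1:3 dilution, top 10 μM, 0.1% DMSO), then quenched with 0.1% FA containing LPA 17:0 internal standard.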

A short description of series [2]: Pharmacokinetic test in mice. Format: in vivo, ICR mice. Conditions: male, ICR, mouse, plasma; for clearance: read-out: CL (mL/min/kg, IV); for bioavailability: PO - 5 mpk vs IV - 1 mpk. The procedure: Dosage preparation: The dosing solution was prepared on the day of dosing. 2 mg of compound was weighed and dissolved in 5% DMSO+10% solutol+85% saline to prepare a solution for intravenous administration at a concentration of 0.2 mg/mL. 2 mg of compound was weighed and dissolved in 25% PEG 200+75% (0.5% MC) to obtain a solution for oral administration at a concentration of 1 mg/mL.
Six healthy male naïve ICR mice, weighing 25 to 30 g, were divided into two groups (intravenous and oral groups) with three in each group, and administered in a single dose. After 3 days of acclimatization, the mice were fasted overnight (10 to 12 hours) the night before the experiment, but had free access to water during the experiment, and the diet was resumed 4 hours after administration. After intravenous and oral administration, the timer was started. Blood was collected via the orbital venous plexus at the scheduled time points (IV&PO: 0.083, 0.25, 0.5, 1, 2, 4, 6, 8, and 24 hours). 40 μL of whole blood was collected at each point and added to a 1.5 mL EP tube containing sodium heparin. The collected whole blood was vibrated twice on a vortex mixer, mixed well, placed on wet ice, and centrifuged at 8000 rpm for 5 minutes at 4° C. within 1 hour. The supernatant plasma was stored in a −80° C. freezer until processing for analysis.

Another series addresses ATX (Homo sapiens (Human), UniProt Q13822). Kind of series: ATX enzyme inhibition assay (Amplex UltraRed/choline oxidase/HRP, 16:0 Lyso PC substrate). The format is biochemical. In short, it runs like this:
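ATX (2× stock […]) preincubated with compound for 10 min at room temperature in assay buffer at pH 8.5 or 7.5. Reaction started with 16:0 Lyso PC, choline oxidase, HRP and Amplex UltraRed (2.5× working stock); fluorescence read kinetically (ex 550/em 590 nm) for 60 min.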

The mark [3] stands for this setting: LPA 18:1, read-out: Human plasma ex vivo assay IC50 (18:1 LPA).
[4] abbreviates: LPA 18:2, read-out: Human plasma ex vivo assay IC50 (18:2 LPA).
Where [5] appears, read: assay buffer pH 7.5, read-out: IC50 (nM) pH 7.5.
The mark [6] stands for this setting: assay buffer pH 8.5, read-out: IC50 (nM) pH 8.5.

With `CN(c1nc(-c2ccc(F)cc2)c(C#N)s1)c1c2c(nc3c(F)cc(N4CC5(CN(C(=O)C(C)(C)O)C5)C4)cc13)[C@](C)(O)CC2` (single isomer, unassigned) [Example E35-b], the IC50 in series [1] (setting [3]) stood at 457 nM. Besides, the half-maximal inhibitory concentration (IC50) in series [1] (setting [4]) was determined as 407 nM. Also, in series [2] (1 mg/kg, IV - 1 mpk), the AUC amounted to 6770 ng·h/mL, the C0 stood at 2920 ng/mL, the half-life is 2.51 h and the clearance came out at 2.51 mL/min/kg. In series [2] (5 mg/kg, PO - 5 mpk), the AUC is 14700 ng·h/mL, the maximum concentration (Cmax) was 3140 ng/mL, the Tmax stood at 1.58 h and the half-life was 2.05 h. The bioavailability in series [2] (5 mg/kg) was found to be 43.5%.

For `CN(c1nc(-c2ccc(F)cc2)c(C#N)s1)c1c2c(nc3c(F)cc(N4CC5(CCN(C(=O)[C@@H]6CCOC6)CC5)C4)cc13)CCC2` [Example C9], the half-maximal inhibitory concentration (IC50) at ATX (setting [5]) was determined as 78.5 nM; on ATX (setting [6]), 23 nM; in series [1] (setting [3]) it was 216 nM; in series [1] (setting [4]), 234 nM.

`CN(c1nc(-c2ccc(F)cc2)c(C#N)s1)c1c2c(nc3ccc(N4CC5(CN(C(=O)[C@H]6CCOC6)C5)C4)nc13)CCO2` [Example C10]: the IC50 at ATX (setting [5]) turned out to be 33.6 nM; at ATX (setting [6]), 18.6 nM; in series [1] (setting [3]) it was 147 nM; in series [1] (setting [4]), 134 nM.

As to `CN(c1nc(-c2ccc(F)cc2)c(C#N)s1)c1c2c(nc3c(F)cc(N4CC5(CN(C(=O)[C@H]6CCOC6)C5)C4)cc13)CCO2` [Example C12], the concentration for half-maximal inhibition (IC50) turned out to be 82.2 nM on ATX (setting [5]), 52.6 nM at ATX (setting [6]), 292 nM in series [1] (setting [3]) and 347 nM in series [1] (setting [4]).

Turning to `CN(c1nc(-c2ccc(F)cc2)c(C#N)s1)c1c2c(nc3c(F)cc(N4CCC5(CCN(C(=O)[C@@H]6CCOC6)C5)C4)cc13)CCC2` (some centres unmarked) [Example C14], the IC50 at ATX (setting [5]) was found to be 334 nM; at ATX (setting [6]) it was 83.1 nM; in series [1] (setting [3]) it was 310 nM; in series [1] (setting [4]), 379 nM.

`CN(c1nc(-c2ccc(F)cc2)c(C#N)s1)c1c2c(nc3c(F)cc(N4CCC5(CCN(C(=O)[C@@H]6CCOC6)CC5)C4)cc13)CCC2` [Example C15]: the IC50 on ATX (setting [5]) is 232 nM; on ATX (setting [6]) it was 60.6 nM; in series [1] (setting [3]), 285 nM; in series [1] (setting [4]) it was 326 nM.

Consider `CN(c1nc(-c2ccc(F)cc2)c(C#N)s1)c1c2c(nc3c(F)cc(N4CC5(CN(C(=O)C6(O)CCOCC6)C5)C4)cc13)COC2` [Example C20], for which the figures for the IC50 (at ATX (setting [6]); in series [1] (setting [3]); in series [1] (setting [4])) were 24.2 nM, 677 nM and 362 nM, respectively.

As to `Cc1cc(N2CC3(CN(C(=O)C(C)(C)O)C3)C2)cc2c(N(C)c3nc(-c4ccc(F)cc4)c(C#N)s3)c3c(nc12)CC3` [Example C26], the IC50 in series [1] (setting [3]) came out at 588 nM. Further, in series [1] (setting [4]), the IC50 stood at 435 nM. Moreover, in series [2] (5 mg/kg, PO - 5 mpk), the exposure (AUC) came out at 124000 ng·h/mL, the maximum concentration (Cmax) is 8390 ng/mL, the Tmax stood at 4.08 h and the half-life was 5.13 h.

Take `Cc1cc(N2CC3(CN(C(=O)C(C)(C)O)C3)C2)cc2c(N(C)c3nc(-c4ccc(F)cc4)c(C#N)s3)c3c(nc12)CCO3` [Example C27]: in series [2] (5 mg/kg, PO - 5 mpk), the AUC is 27600 ng·h/mL, the Cmax is 2010 ng/mL, the Tmax was 6.67 h and the half-life is 3.98 h.

For the compound `CN(c1nc(-c2ccc(F)cc2)c(C#N)s1)c1c2c(nc3c(F)cc(N4CC5(CN(C(=O)C(C)(C)O)C5)C4)cc13)CC2` [Example C28], the IC50 in series [1] (setting [3]) was 545 nM. Moreover, the IC50 in series [1] (setting [4]) came to 574 nM. Further, in series [2] (1 mg/kg, IV - 1 mpk), the AUC was determined as 14100 ng·h/mL, the C0 is 2110 ng/mL, the half-life was 3.63 h and the clearance worked out at 1.21 mL/min/kg. Moreover, in series [2] (5 mg/kg, PO - 5 mpk), the AUC was 125000 ng·h/mL, the Cmax was 10200 ng/mL, the Tmax was found to be 3 h and the half-life was 2.82 h. Further, in series [2] (5 mg/kg), the bioavailability was determined as 176%.

For `Cc1cc(N2CC3(CN(C(=O)C(C)(C)O)C3)C2)nc2c(N(C)c3nc(-c4ccc(F)cc4)c(C#N)s3)c3c(nc12)CC3` [Example C29], the concentration for half-maximal inhibition (IC50) in series [1] (setting [3]) was determined as 251 nM. In addition, the IC50 in series [1] (setting [4]) amounted to 220 nM. In series [2] (1 mg/kg, IV - 1 mpk), the AUC worked out at 12600 ng·h/mL, the C0 is 2600 ng/mL, the half-life was 2.73 h and the clearance was 1.39 mL/min/kg. Besides, in series [2] (5 mg/kg, PO - 5 mpk), the AUC was 36500 ng·h/mL, the concentration peaked (Cmax) at 3640 ng/mL, the Tmax came to 0.67 h and the half-life is 1.89 h. For the same compound, the bioavailability in series [2] (5 mg/kg) was 57.7%.

`Cc1cc(N2CC3(CN(C(=O)C(C)(C)O)C3)C2)cc2c(N(C)c3nc(-c4ccc(F)cc4)c(C#N)s3)c3c(nc12)COC3` [Example C31]: in series [2] (5 mg/kg, PO - 5 mpk), the AUC worked out at 32300 ng·h/mL, the Cmax was determined as 3480 ng/mL, the Tmax is 0.42 h and the half-life is 3.77 h.

Take `CN(c1nc(-c2ccc(F)cc2)c(C#N)s1)c1c2c(nc3c(F)cc(N4CC5(CN(C(=O)C(C)(C)O)C5)C4)cc13)CCC2` [Example C32]: in series [2] (5 mg/kg, PO - 5 mpk), the AUC was 21400 ng·h/mL, the Cmax is 2660 ng/mL, the Tmax stood at 0.5 h and the half-life is 2.56 h.

Turning to `C[C@H]1CN(CC(=O)N2CC(O)C2)CCN1c1cc(F)c2nc3c(c(N(C)c4nc(-c5ccc(F)cc5)c(C#N)s4)c2c1)CCC3O` (some centres unmarked) [Example E7], the IC50 on ATX (setting [6]) was determined as 15.4 nM; in series [1] (setting [3]) it was 149 nM; in series [1] (setting [4]), 327 nM.

With `C[C@H]1CN(c2cc(F)c3nc4c(c(N(C)c5nc(-c6ccc(F)cc6)c(C#N)s5)c3c2)CCC4O)CCN1CC(=O)N1CC(O)C1` (some centres unmarked) [Example E8], the concentration for half-maximal inhibition (IC50) at ATX (setting [6]) is 15.4 nM; in series [1] (setting [3]), 175 nM; in series [1] (setting [4]), 160 nM.

In the case of `C[C@@H]1CN(c2cc(F)c3nc4c(c(N(C)c5nc(-c6ccc(F)cc6)c(C#N)s5)c3c2)CCC4O)CCN1CC(=O)N1CC(O)C1` (some centres unmarked) [Example E9], the IC50 on ATX (setting [6]) amounted to 19.6 nM; in series [1] (setting [3]) it was 160 nM; in series [1] (setting [4]) it was 152 nM.

Take `CN(c1nc(-c2ccc(F)cc2)c(C#N)s1)c1c2c(nc3c(F)cc(N4CCN(CC(=O)N5CC(C)(O)C5)CC4)cc13)C(O)CC2` (centres unmarked) [Example E10]: the figures for the IC50 (at ATX (setting [6]); in series [1] (setting [3]); in series [1] (setting [4])) were 16.2 nM, 139 nM and 270 nM, respectively.

On to `CN(c1nc(-c2ccc(F)cc2)c(C#N)s1)c1c2c(nc3c(F)cc(N4CC5(CN(C(=O)C6CCOCC6)C5)C4)cc13)C(O)CC2` (centres unmarked) [Example E14], for which the IC50 came out at 17.3 nM on ATX (setting [6]), 281 nM in series [1] (setting [3]) and 651 nM in series [1] (setting [4]).

With `CN(c1nc(-c2ccc(F)cc2)c(C#N)s1)c1c2c(nc3c(F)cc(N4CC5(CN(C(=O)C6(O)CCOCC6)C5)C4)cc13)C(O)CC2` (centres unmarked) [Example E15], the IC50 at ATX (setting [6]) worked out at 13.3 nM; in series [1] (setting [3]), 266 nM; in series [1] (setting [4]), 271 nM.

With `CN(c1nc(-c2ccc(F)cc2)c(C#N)s1)c1c2c(nc3c(F)cc(N4CC5(CN(C(=O)C(C)(C)O)C5)C4)cc13)C(O)CC2` (centres unmarked) [Example E16], the concentration for half-maximal inhibition (IC50) at ATX (setting [6]) was 16.8 nM; in series [1] (setting [3]), 410 nM; in series [1] (setting [4]), 436 nM.

`CN1CC[C@H](C(=O)N2CC3(C2)CN(c2cc(F)c4nc5c(c(N(C)c6nc(-c7ccc(F)cc7)c(C#N)s6)c4c2)CCC5O)C3)C1` (some centres unmarked) [Example E18]: the results for the IC50 (at ATX (setting [6]); in series [1] (setting [3]); in series [1] (setting [4])) were 21.4 nM, 250 nM and 260 nM, respectively.

As to `Cc1cc(N2CC3(CN(C(=O)C(C)(C)O)C3)C2)nc2c(N(C)c3nc(-c4ccc(F)cc4)c(C#N)s3)c3c(nc12)C(C)(O)CC3` (centres unmarked) [Example E25], in series [1] (setting [3]), the IC50 was found to be 379 nM. Moreover, the IC50 in series [1] (setting [4]) came out at 457 nM. Moreover, in series [2] (5 mg/kg, PO - 5 mpk), the AUC was found to be 23900 ng·h/mL, the highest level (Cmax) was 2830 ng/mL, the Tmax turned out to be 0.58 h and the half-life was 2.66 h.
